From patent US12441726B2, “Compounds and uses thereof” (Foghorn Therapeutics Inc., priority 2020, dated 2025)

Columns and labels:
BRM = BRM (Homo sapiens, UniProt P51531); test: ATPase catalytic activity assay (ADP-Glo), BRM; conditions: 30 nM BRM, 400 μM ATP; for IC50: BRM ATPase: IC50 (uM)
Procedure: (§1) The ATPase catalytic activity of BRM or BRG-1 was measured by an in vitro biochemical assay using ADP-Glo™ (Promega, V9102). The ADP-Glo™ kinase assay is performed in two steps once the reaction is complete. The first step is to deplete any unconsumed ATP in the reaction. The second step is to convert the reaction product ADP to ATP, which will be utilized by the luciferase to generate luminesce and be detected by a luminescence reader, such as Envision.
(§2) Then following addition of 5 μL of ADP-Glo™ Reagent provided in the kit, the reaction incubates at room temperature for 40 minutes. Then 10 μL of Kinase Detection Reagent provided in the kit is added to convert ADP to ATP, and the reaction incubates at room temperature for 60 minutes. Finally, luminescence measurement is collected with a plate-reading luminometer, such as Envision.

BRG-1 = BRG-1 (Homo sapiens, UniProt P51532); test: ATPase catalytic activity assay (ADP-Glo), BRG-1; conditions: for Emax: 1 h, read-out: BRG1 Max % Inhibition, ADP-Glo, 30 nM BRG-1, 400 μM ATP
BRG-1, sequence (P51532 whole entry): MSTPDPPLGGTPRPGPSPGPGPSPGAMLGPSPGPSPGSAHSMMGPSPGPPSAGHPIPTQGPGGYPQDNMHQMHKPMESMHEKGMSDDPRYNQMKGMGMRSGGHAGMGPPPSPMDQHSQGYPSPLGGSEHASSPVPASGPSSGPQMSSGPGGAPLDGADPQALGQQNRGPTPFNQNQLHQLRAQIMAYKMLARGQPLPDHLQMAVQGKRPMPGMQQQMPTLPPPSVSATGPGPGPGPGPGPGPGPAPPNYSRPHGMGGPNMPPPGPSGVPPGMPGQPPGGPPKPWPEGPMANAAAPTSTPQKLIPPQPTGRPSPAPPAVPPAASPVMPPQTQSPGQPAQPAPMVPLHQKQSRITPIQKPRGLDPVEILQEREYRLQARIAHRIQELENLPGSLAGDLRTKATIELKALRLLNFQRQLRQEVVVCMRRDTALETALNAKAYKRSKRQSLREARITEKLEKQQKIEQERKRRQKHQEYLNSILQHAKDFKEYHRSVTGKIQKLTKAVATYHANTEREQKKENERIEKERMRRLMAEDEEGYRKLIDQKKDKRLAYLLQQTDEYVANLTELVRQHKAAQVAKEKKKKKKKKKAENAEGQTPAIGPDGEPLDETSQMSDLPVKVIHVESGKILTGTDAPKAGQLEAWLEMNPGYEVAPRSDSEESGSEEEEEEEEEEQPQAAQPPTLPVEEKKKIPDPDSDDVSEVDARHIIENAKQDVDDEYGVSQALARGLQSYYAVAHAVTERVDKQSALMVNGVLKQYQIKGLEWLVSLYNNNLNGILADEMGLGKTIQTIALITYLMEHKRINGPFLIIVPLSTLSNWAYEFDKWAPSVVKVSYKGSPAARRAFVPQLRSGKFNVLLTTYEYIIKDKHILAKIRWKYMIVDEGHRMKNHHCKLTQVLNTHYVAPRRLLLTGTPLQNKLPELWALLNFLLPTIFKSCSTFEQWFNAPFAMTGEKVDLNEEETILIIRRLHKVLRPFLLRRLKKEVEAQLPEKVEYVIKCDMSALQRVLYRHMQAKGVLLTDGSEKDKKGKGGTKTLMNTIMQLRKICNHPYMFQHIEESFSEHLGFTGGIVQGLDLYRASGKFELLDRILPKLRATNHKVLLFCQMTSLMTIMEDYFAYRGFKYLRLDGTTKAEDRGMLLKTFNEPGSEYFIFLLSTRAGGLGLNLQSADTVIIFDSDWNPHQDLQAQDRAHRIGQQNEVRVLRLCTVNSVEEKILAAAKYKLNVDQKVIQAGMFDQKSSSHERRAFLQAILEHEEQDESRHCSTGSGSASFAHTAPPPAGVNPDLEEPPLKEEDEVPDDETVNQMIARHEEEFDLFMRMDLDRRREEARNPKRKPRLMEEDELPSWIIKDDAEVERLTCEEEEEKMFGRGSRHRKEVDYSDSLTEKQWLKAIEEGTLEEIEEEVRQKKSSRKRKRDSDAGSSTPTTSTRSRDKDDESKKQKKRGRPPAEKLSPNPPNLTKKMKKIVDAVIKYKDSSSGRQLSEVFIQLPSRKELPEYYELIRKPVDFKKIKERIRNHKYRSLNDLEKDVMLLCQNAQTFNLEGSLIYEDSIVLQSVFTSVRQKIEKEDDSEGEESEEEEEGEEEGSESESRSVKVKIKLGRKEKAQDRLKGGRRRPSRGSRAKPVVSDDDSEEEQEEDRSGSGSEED
Procedure: as §1, §2

BRM, sequence (P51531 whole entry): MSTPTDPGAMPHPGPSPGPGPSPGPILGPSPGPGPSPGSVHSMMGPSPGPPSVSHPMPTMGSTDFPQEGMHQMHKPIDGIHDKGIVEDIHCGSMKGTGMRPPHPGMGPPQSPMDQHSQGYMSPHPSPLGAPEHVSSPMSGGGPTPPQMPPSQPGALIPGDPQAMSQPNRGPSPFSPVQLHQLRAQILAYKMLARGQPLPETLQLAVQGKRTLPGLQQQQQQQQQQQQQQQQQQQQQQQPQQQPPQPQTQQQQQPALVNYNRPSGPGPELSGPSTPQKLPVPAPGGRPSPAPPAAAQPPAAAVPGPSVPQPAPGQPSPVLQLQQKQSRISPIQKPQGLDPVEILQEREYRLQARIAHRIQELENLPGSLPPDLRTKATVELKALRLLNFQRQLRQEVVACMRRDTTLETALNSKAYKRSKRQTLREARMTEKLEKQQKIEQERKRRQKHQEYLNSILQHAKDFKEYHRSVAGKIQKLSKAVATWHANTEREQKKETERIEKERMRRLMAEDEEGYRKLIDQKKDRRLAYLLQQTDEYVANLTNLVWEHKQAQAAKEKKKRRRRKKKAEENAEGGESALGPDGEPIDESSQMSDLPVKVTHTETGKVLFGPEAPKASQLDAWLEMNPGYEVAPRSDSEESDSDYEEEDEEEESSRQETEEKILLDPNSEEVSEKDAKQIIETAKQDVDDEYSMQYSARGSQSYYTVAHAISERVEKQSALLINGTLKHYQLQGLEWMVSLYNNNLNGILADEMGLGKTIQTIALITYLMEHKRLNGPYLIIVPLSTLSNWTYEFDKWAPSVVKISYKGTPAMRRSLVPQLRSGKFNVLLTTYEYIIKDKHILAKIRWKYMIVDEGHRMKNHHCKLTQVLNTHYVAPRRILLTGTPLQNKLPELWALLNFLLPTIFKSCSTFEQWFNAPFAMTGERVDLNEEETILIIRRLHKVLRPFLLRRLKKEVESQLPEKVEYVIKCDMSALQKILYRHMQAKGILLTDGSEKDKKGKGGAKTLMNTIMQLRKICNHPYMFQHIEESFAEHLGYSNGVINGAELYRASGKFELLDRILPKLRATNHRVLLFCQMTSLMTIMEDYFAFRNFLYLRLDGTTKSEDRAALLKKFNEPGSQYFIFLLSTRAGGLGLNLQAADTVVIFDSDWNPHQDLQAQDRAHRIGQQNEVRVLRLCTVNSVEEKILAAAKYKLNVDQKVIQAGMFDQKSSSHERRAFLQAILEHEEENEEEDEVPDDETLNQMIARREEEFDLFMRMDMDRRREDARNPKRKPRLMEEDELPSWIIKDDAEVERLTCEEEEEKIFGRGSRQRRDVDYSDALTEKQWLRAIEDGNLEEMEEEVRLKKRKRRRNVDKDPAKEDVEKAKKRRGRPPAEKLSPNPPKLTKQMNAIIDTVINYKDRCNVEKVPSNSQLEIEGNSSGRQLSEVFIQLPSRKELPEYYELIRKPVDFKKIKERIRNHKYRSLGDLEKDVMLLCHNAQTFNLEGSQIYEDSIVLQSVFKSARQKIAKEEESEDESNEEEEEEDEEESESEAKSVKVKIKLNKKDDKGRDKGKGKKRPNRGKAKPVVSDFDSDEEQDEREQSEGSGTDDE

BRM Max % Inhibition (BRM)	IC50 (BRM)	IC50 (BRG-1)	Emax (BRG-1)	Structure (SMILES)
90%	0.1 to 0.5 µM	> 1000 nM	56%	C[C@@]1(C#N)COCc2ccc(C(=O)NCc3cc(C#Cc4ccccc4)ccn3)cc21 [Compound 1]
96%	0.1 to 0.5 µM	> 1000 nM	65%	COc1cccc(C#Cc2ccnc(CNC(=O)c3ccc4c(c3)[C@](C)(C#N)COC4)c2)c1 [Compound 2]
99%	< 0.1 µM	> 1000 nM	78%	COC(=O)c1cccc(C#Cc2ccnc(CNC(=O)c3ccc4c(c3)[C@](C)(C#N)COC4)c2)c1 [Compound 3]
97%	0.1 to 0.5 µM	> 1000 nM	74%	C[C@@]1(C#N)COCc2ccc(C(=O)NCc3cc(/C=C/c4ccccc4)ccn3)cc21 [Compound 4]
64%	> 1 µM	> 1000 nM	12%	COC(=O)N1CCCC(C#Cc2ccnc(CNC(=O)c3ccc4c(c3)[C@](C)(C#N)COC4)c2)C1 (stereo partly drawn) [Compound 5]
95%	0.1 to 0.5 µM	> 1000 nM	44%	C[C@@]1(C#N)COCc2ccc(C(=O)NCc3cc(OCc4ccccc4)ccn3)cc21 [Compound 6]
81%	> 1 µM	> 1000 nM	12%	C[C@@]1(C#N)COCc2ccc(C(=O)NCc3cc([C@H]4C[C@@H]4c4ccccc4)ccn3)cc21 [Compound 7]
73%	> 1 µM	> 1000 nM	9%	C[C@@]1(C#N)COCc2ccc(C(=O)NCc3cc([C@@H]4C[C@H]4c4ccccc4)ccn3)cc21 [Compound 8]
95%	0.1 to 0.5 µM	> 1000 nM	56%	C[C@@]1(C#N)COCc2ccc(C(=O)NCc3cc(/C(F)=C(\F)c4ccccc4)ccn3)cc21 [Compound 9]
71%	> 1 µM	> 1000 nM	30%	C[C@@]1(C#N)COCc2ccc(C(=O)NCc3cc(N4CC5(CN(c6ccccc6)C5)C4)ccn3)cc21 [Compound 10]
82%	> 1 µM	> 1000 nM	26%	C[C@@]1(C#N)COCc2ccc(C(=O)NCc3cc(N4CCC5(C4)CN(c4ccccc4)C5)ccn3)cc21 [Compound 11]
79%	> 1 µM	> 1000 nM	22%	C[C@@]1(C#N)COCc2ccc(C(=O)NCc3cc(N4CC5(CCN(c6ccccc6)C5)C4)ccn3)cc21 [Compound 12]
84%	> 1 µM	> 1000 nM	44%	O=C(NCc1cc(C#Cc2ccccc2)ccn1)c1cccc(C2(C(F)F)COC2)c1 [Compound 13]
94%	0.5 to 1 µM	> 1000 nM	64%	C[C@@]1(F)COCc2ccc(C(=O)NCc3cc(C#Cc4ccccc4)ccn3)cc21 [Compound 14]
94%	0.5 to 1 µM	> 1000 nM	64%	Cc1cnc(CNC(=O)c2ccc3c(c2)[C@](C)(C#N)COC3)cc1C#Cc1ccccc1 [Compound 15]
94%	0.1 to 0.5 µM	> 1000 nM	51%	C[C@@]1(C#N)COCc2ccc(C(=O)NCc3nccc(C#Cc4ccccc4)c3F)cc21 [Compound 16]
94%	0.1 to 0.5 µM	> 1000 nM	58%	C[C@@]1(C#N)COCc2ccc(C(=O)NCc3cc(C#Cc4cccc(C(F)F)c4)ccn3)cc21 [Compound 17]
93%	< 0.1 µM	> 1000 nM	87%	C[C@@]1(C#N)COCc2ccc(C(=O)NCc3cc([C@H]4C[C@H](c5ccccc5)C4)ccn3)cc21 [Compound 18]
97%	0.1 to 0.5 µM	500 to 1000 nM	89%	C[C@@]1(C#N)COCc2ccc(C(=O)NCc3cc([C@H]4C[C@@H](c5ccccc5)C4)ccn3)cc21 [Compound 19]
83%	0.5 to 1 µM	> 1000 nM	41%	C[C@@]1(C#N)COCc2ccc(C(=O)NCc3cc(C#Cc4ccccc4)c(F)cn3)cc21 [Compound 20]
78%	> 1 µM	> 1000 nM	31%	COC(=O)N1CCC(C#Cc2ccnc(CNC(=O)c3ccc4c(c3)[C@](C)(C#N)COC4)c2)CC1 [Compound 21]
70%	> 1 µM	> 1000 nM	31%	COC(=O)N1CCC(C#Cc2ccnc(CNC(=O)c3ccc4c(c3)[C@](C)(C#N)COC4)c2)C1 (stereo partly drawn) [Compound 22]
85%	0.5 to 1 µM	> 1000 nM	35%	COC(=O)c1cccc(C#Cc2ccnc(CNC(=O)c3ccc4c(c3)[C@](C)(O)COC4)c2)c1 [Compound 23]

BRM Max % Inhibition (BRM)	IC50 (BRM)	IC50 (BRG-1)	Emax (BRG-1)	Structure (SMILES)
94%	0.1 to 0.5 µM	> 1000 nM	65%	COC(=O)c1cccc(C#Cc2ccnc(CNC(=O)c3ccc4c(c3)[C@](C)(C#N)CCO4)c2)c1 [Compound 24]
94%	0.1 to 0.5 µM	> 1000 nM	68%	C[C@@]1(C#N)COCc2ccc(C(=O)NCc3cc(CCc4ccccc4)ccn3)cc21 [Compound 25]
100%	< 0.1 µM	100 to 500 nM	90%	COC(=O)c1cccc(/C=C/c2ccnc(CNC(=O)c3ccc4c(c3)[C@](C)(C#N)COC4)c2)c1 [Compound 26]
97%	0.1 to 0.5 µM	> 1000 nM	62%	C[C@@]1(C#N)COCc2ccc(C(=O)NCc3cc(/C(F)=C/c4ccccc4)ccn3)cc21 [Compound 27]
98%	< 0.1 µM	500 to 1000 nM	86%	C[C@@]1(C#N)COCc2ccc(C(=O)NCc3cc(N4CCc5ccccc5C4)ccn3)cc21 [Compound 28]
98%	0.1 to 0.5 µM	> 1000 nM	69%	C[C@@]1(C#N)COCc2ccc(C(=O)NCc3cc(/C=C(\F)c4ccccc4)ccn3)cc21 [Compound 29]
92%	0.1 to 0.5 µM	> 1000 nM	35%	C[C@@]1(C#N)COCc2ccc(C(=O)NCc3cc(C4CN(c5ccccc5)C4)ccn3)cc21 [Compound 30]
96%	0.1 to 0.5 µM	> 1000 nM	73%	C[C@@]1(C#N)COCc2ccc(C(=O)NCc3cc(N4Cc5ccccc5C4)ccn3)cc21 [Compound 31]
89%	> 1 µM	> 1000 nM	55%	C[C@@]1(C#N)COCc2ccc(C(=O)NCc3cc(N4CC(c5ccccc5)C4)ccn3)cc21 [Compound 32]
98%	0.1 to 0.5 µM	> 1000 nM	78%	C[C@@]1(C#N)COCc2ccc(C(=O)NCc3nccc(/C=C/c4ccccc4)c3F)cc21 [Compound 33]
94%	0.1 to 0.5 µM	> 1000 nM	53%	C[C@@]1(C#N)COCc2ccc(C(=O)NCc3cc(OCc4cccc(N5CCC5)n4)ccn3)cc21 [Compound 34]
64%	> 1 µM	> 1000 nM	44%	C[C@@]1(C#N)COCc2ccc(C(=O)NCc3cc(OCc4ccccn4)ccn3)cc21 [Compound 36]
76%	> 1 µM	> 1000 nM	21%	COC(=O)c1cccc(C#Cc2ccnc(CNC(=O)c3ccc4c(c3)[C@](C)(C#N)CO4)c2)c1 [Compound 37]
97%	< 0.1 µM	> 1000 nM	86%	COc1cccc(/C=C/c2ccnc(CNC(=O)c3ccc4c(c3)[C@](C)(C#N)COC4)c2)c1 [Compound 38]
75%	> 1 µM	> 1000 nM	28%	COC(=O)c1cccc(C#Cc2ccnc(CNC(=O)c3ccc4c(c3)[C@](C)(C#N)CCN4)c2)c1 [Compound 39]
96%	0.1 to 0.5 µM	> 1000 nM	67%	C[C@@]1(C#N)COCc2ccc(C(=O)NCc3cc(OCc4cccc(N5CCC5)c4)ccn3)cc21 [Compound 40]
85%	0.5 to 1 µM	> 1000 nM	55%	COC[C@H](NC(=O)c1ccc2c(c1)[C@](C)(C#N)COC2)c1cc(/C=C/c2ccccc2)ccn1 [Compound 41]
97%	0.1 to 0.5 µM	500 to 1000 nM	84%	C[C@@]1(C#N)COCc2ccc(C(=O)NCc3cc(N4CCN(c5ccccc5)CC4)ccn3)cc21 [Compound 42]
68%	> 1 µM	> 1000 nM	34%	COC[C@H](NC(=O)c1ccc2c(c1)[C@](C)(C#N)COC2)c1cc(C#Cc2ccccc2)ccn1 [Compound 43]
97%	0.1 to 0.5 µM	> 1000 nM	69%	C[C@@]1(C#N)COCc2ccc(C(=O)NCc3cc(N4CCC(c5ccccc5)C4)ccn3)cc21 (stereo partly drawn) [Compound 44]
96%	< 0.1 µM	500 to 1000 nM	79%	C[C@@]1(C#N)COCc2ccc(C(=O)NCc3cc(OCc4cc(F)c5c(c4)CCO5)ccn3)cc21 [Compound 45]
78%	> 1 µM	> 1000 nM	29%	C[C@@]1(C#N)COCc2ccc(C(=O)NCc3cc(N4CC(c5ccccc5)C4)cnn3)cc21 [Compound 46]
